Laboratory results as given in article PMC5073322, “Novel Natural Product-like Caged Xanthones Bearing a Carbamate Moiety Exhibit Antitumor Potency and Anti-Angiogenesis Activity In vivo” (Scientific Reports, 2016).

Tests used:
HepG2 cells = assay: Annexin V/PI apoptosis, flow cytometry; type: cell-based, human; details: 48 h
Experimental: First, the influence of 8n on the cytoskeleton was evaluated using morphological observations. After treatment with 8n, the morphological features of tumour cells changed greatly, and the changed characteristics included the rounding-up of cells, rough membrane surfaces, and more spherical or ovoid cytoplasmic fragments (Fig. 6A). However, the control group, which lacked compound 8n, had good growth. Next, we examined whether the morphological changes were the result of apoptosis induced by compound 8n using DAPI staining and FACScan.
Figure 6 (A) Morphological changes in cancer cells and nuclei. (B) 8n induced apoptosis in HepG2 cells. […] The cells were then were stained with DAPI and observed by fluorescence microscopy. […] (D) The percentages of early apoptotic and total apoptotic cells were quantified using flow cytometry. *p < 0.05; **p < 0.01. […] The expression levels of Caspase-3, Cleaved Caspase-3, Bax, Bcl-2, PARP and cleaved PARP were measured by Western blotting. […]
HepG2 cells were grown on glass coverslips and fixed in 4% paraformaldehyde. […] 8n-induced apoptosis was assessed using a fluorescence microscope and the Annexin V-FITC apoptosis Detection Kit (Beyotime Biotechnology, Shanghai, China) according to the manufacturer’s instructions. […] Stained cells were analysed with a FACScan analyser (argon laser, Becton Dickinson, USA). All data were analysed by using the FlowJo software.

HepG2 tumours = assay: HepG2 hepatoblastoma xenograft in nude mice; type: in vivo; details: 20 days; for inhibition of the tumour volume: IV, twice-daily
Experimental: Given the in vitro anti-tumour cell activity of 8n, we continued to evaluate its in vivo effect in hepatoblastoma xenograft models using previously reported methods, and the water-soluble anti-cancer drug 5-fluorouracil (5-FU) was used as a positive control. After tumours were established, the mice were IV injected with 2.5, 5, 10 or 50 mg/kg 8n; the lead compound DDO-6101 and antitumour drug 5-FU were used as controls. All mice had normal weights and quality of life in in vivo tests. […] The in vivo activity of 8n was also evaluated after oral administration. […] This observation may be attributed to the improved physicochemical properties of 8n compared to those of DDO-6101, such as aqueous solubility and cell membrane permeability, which were provided by modification with the carbamate moiety.
Figure 7 (A) The tumour diameters were measured and used to calculate the tumour volumes. The HepG2 xenograft-bearing mice were intravenously injected with 2.5, 5, 10 and 50 mg/kg 8n for 20 days. (B) After 20 days, mice were sacrificed and the individual tumours were weighed. *p < 0.05, […]; Student’s t-test (n = 6). (C) The tumour diameters were measured and used to calculate the tumour volumes. The HepG2 xenograft-bearing mice were orally administered 50 mg/kg 8n, 50 mg/kg DDO-6101 or 10 mg/kg 5-FU for 20 days.
All studies were performed in compliance with the relevant guidelines and regulations. Tumours on female nude mice were established by injecting 1×10^7 HepG2 cells on the dorsal surface. After four weeks, tumours of approximately 150 mm^3 were cut into pieces that were 3 mm×3 mm×3 mm in size and were then implanted in the dorsal surface of other female nude mice. One week later, mice implanted with xenografts of 100 mm^3 were selected, randomized, and […] injected with 2.5, 5, or 10-mg/kg 8n or vehicle daily for another three weeks. The tumour dimensions were measured daily with vernier calipers, and the tumour volumes were calculated using the formula: volume = (width)^2 × length/2.

[1] = tested on: Caspase-3 and PARP in HepG2 cells; assay: Western blot of apoptosis-related proteins; type: cell-based, human; details: HepG2, 24 h
Experimental: Figure 6 (A) Morphological changes in cancer cells and nuclei. (B) 8n induced apoptosis in HepG2 cells. Cultured HepG2 cells were treated with the indicated concentrations of 8n for 48 h. The cells were then were stained with DAPI and observed by fluorescence microscopy. (C) 8n induces apoptosis in a dose-dependent manner. HepG2 cells were treated with different concentrations of 8n for 48 h, and Annexin V and propidium iodide staining were performed. (D) The percentages of early apoptotic and total apoptotic cells were quantified using flow cytometry. *p < 0.05; **p < 0.01. (E) The expression of apoptotic-related proteins in HepG2 cells treated with 8n. HepG2 cells were treated with various concentrations of 8n for 24 h and were then harvested and lysed. The expression levels of Caspase-3, Cleaved Caspase-3, Bax, Bcl-2, PARP and cleaved PARP were measured by Western blotting. TEXT PRINTED IN THE PICTURE: (C) Compound 8n: Dead 1.50 % (Control); Late Apop./Dead 4.95 % (Control); Early Apop. 1.05 % (Control); Dead 1.95 % (0.1 μM); Late Apop./Dead 7.80 % (0.1 μM); Early Apop. 1.60 % (0.1 μM); Dead 7.81 % (0.3 μM); Late Apop./Dead 9.19 % (0.3 μM); Early Apop. […]
The cells were washed with PBS and lysed with ice-cold lysis buffer supplemented with protease inhibitors (Roche) for 30 min. The protein content of the supernatants of lysates was determined using a bicinchoninic acid assay. […]

[2] = tested on: Hsp90 client proteins in HepG2 cells; assay: Western blot of Hsp90 client proteins; type: cell-based, human; details: HepG2, 24 h
Experimental: Figure 9 (A) The caged compounds (50 μM) inhibited the Hsp90 ATPase activity in a HTRF-based inhibition assay. (B) The IC50 values for the inhibition of Hsp90 ATPase by 8n, 8o and GA as detected by the HTRF Transcreener ADP kit. The test compounds were diluted to obtain a range of concentrations and incubated with Hsp90 and ATP. The amount of ADP generated was detected. (C) Western blots of the Hsp90 client proteins after HepG2 cells were treated with the indicated concentrations of 8n for 24 h. (D) The mRNA expression of VEGF was determined by real-time quantitative reverse-transcriptase polymerase chain reaction (RT-PCR) and analysed by the delta Ct method. The bars represent the means with standard error of the mean (SEM) and the fold change in the VEGF/GAPDH ratio relative to the vehicle-treated group. The different significance levels are indicated as **P < 0.05.
The influence of 8n on the degradation of Hsp90 client proteins was monitored by WB analysis. HepG2 cells were treated with different concentrations of 8n for 24 h. […] HIF-1α, as a key modulator of angiogenesis and an important client protein of Hsp90, was also examined, and the expression of HIF-1α decreased after treatment with 8n.
The cells were washed with PBS and lysed with ice-cold lysis buffer supplemented with protease inhibitors (Roche) for 30 min. The protein content of the supernatants of lysates was determined using a bicinchoninic acid assay. Equal 50 μg total protein samples were separated by sodium dodecyl sulphate polyacrylamide gel electrophoresis (SDS−PAGE) and then transferred onto PVDF membranes (Millipore) at 90 volts for 90 mins. After blocking the membrane with 5% skim milk for 1 h at RT, the membranes were incubated with the primary antibody overnight at 4 °C. Then, the membranes were incubated with a DyLight 800-labeled secondary antibody in the dark for 1 h. Detection of specific proteins was performed with the Odyssey infrared imaging system (LI-COR, Lincoln, Nebraska, USA).

## CC(C)=CCC12OC(C)(C)C3CC(C=C4C(=O)c5c(OC(=O)N6CCC(N7CCCCC7)CC6)cccc5OC431)C2=O (stereo not shown) [Compound 8n]
HepG2 cells; 0.3 μM
  apoptotic cells: more than 11.89%
HepG2 cells; 1 μM
  apoptotic cells: > 46.3%
HepG2 tumours; 2.5 mg/kg
  inhibition of the tumour volume: 27.97%
HepG2 tumours; 5 mg/kg
  inhibition of the tumour volume: 38.50%
HepG2 tumours; 10 mg/kg
  inhibition of the tumour volume: 48.36%
HepG2 tumours; 50 mg/kg, oral, daily
  inhibition of tumour growth: 30.12%
[1]
  levels of cleaved caspase-3/PARP: increased
[2]
  expression levels of client proteins HER-2, Akt and Erk1/2: dramatically reduced
  expression of HIF-1α: decreased
  expression of Hsp70: changed little
